Test results taken from publication PMC6283615, “Anilinoquinoline based inhibitors of trypanosomatid proliferation” (PLoS Neglected Tropical Diseases, 2018).
Converted amounts (≈) assume the structure as drawn.

Experiments:
[1] = target: L. major amastigote; assay: L. major intracellular amastigote luciferase assay in RAW 264.7 macrophages; format: cell-based, Leishmania major; details: intracellular amastigotes in RAW 264.7 macrophages, 96 h
Procedure: Amastigote assays were performed using pLEXSY-hyg2-luciferase L. major transfected promastigotes and the murine RAW 264.7 macrophage cell line (ATCC TIB-71, Manassas, VA). Briefly, luciferase-expressing promastigotes of each Leishmania species were generated by adding a luciferase encoding region to the pLEXSY-hyg2 vector (Jena Biosciences, Germany) as described. One μg of the linearized pLEXSY-hyg2-luciferase vector were electroporated (480 V, 13 Ω, and 500 μF) into 4×10^7 Leishmania promastigotes. Selection for stable promastigote transfectants was carried out using hygromycin B (100 μg/mL). RAW 264.7 macrophages were maintained in growth medium (Dulbecco’s Modified Eagle’s Medium supplemented with heat-inactivated 10% FBS (Life Technologies)). Cells were harvested and resuspended in growth medium at 2.0×10^5 cells/mL, and 1×10^4 cells/well were dispensed (final volume 50 μL) in each well of a 384 well tissue-culture treated white plate using a EVO Freedom liquid handling system (Tecan, Durham, NC). Plates were incubated at 37°C in 5% CO2 for 24 h after which the culture medium was removed from each well using the EVO Freedom liquid handler. Metacyclic phase pLEXSY-hyg2-luciferase-Leishmania promastigotes (MOI = 1:10 L. major) were added to each assay plate well and allowed to infect the RAW 264.7 macrophages. After an overnight incubation, the growth medium was aspirated and each well was washed three times with 40 μL of fresh growth medium to remove non-internalized promastigotes. After the third wash, 69.2 μL of growth medium was added to each well. Compound dilutions (final concentration ranges 0.5–10,000 ng/mL) were generated and dispensed using the liquid handling system. Compound treated plates were incubated at 37°C in 5% CO2 for 96 h. After incubation, 7.5 μL of a luciferin solution (Caliper Life Science, Waltham, MA) diluted to 150 μg/mL was added to each well, and the plates were incubated for 30 min at 37°C in the dark. Data were captured using an Infinite M200 plate reader (Tecan). EC50s were generated for each concentration response test using GraphPad Prism software 6.0.

[2] = test system: HepG2 cells; assay: Drug toxicity to HepG2 cells (MTT, 48 h); format: cell-based, human; details: tested concentration ranges based on compound solubility
Procedure: HepG2 cells were cultured in complete Minimal Essential Medium prepared by supplementing MEM with 0.19% sodium bicarbonate, 10% heat inactivated FBS, 2 mM L-glutamine, 0.1 mM MEM non-essential amino, 0.009 mg/mL insulin, 1.76 mg/mL bovine serum albumin, 20 units/mL penicillin–streptomycin, and 0.05 mg/mL gentamycin. HepG2 cells cultured in complete MEM were first washed with 1× Hank’s Balanced Salt Solution (Invitrogen #14175095), trypsinized using a 0.25% trypsin/EDTA solution, assessed for viability using trypan blue, and resuspended at 250,000 cells/mL. Using a Tecan EVO Freedom robot, 38.3 μL of cell suspension were added to each well of clear, cell culture-treated 384-well microtiter plates for a final concentration of 9570 liver cells per well, and plated cells were incubated overnight in 5% CO2 at 37°C. Drug plates were prepared with the Tecan EVO Freedom using sterile 96 well plates containing twelve duplicate 1.6-fold serial dilutions of each test compound suspended in DMSO. 4.25 μL of diluted test compound was then added to the 38.3 μL of media in each well providing a […] final dilution of compound. Compounds were tested from a range of 57 ng/mL to 10,000 ng/mL for all assays. Mefloquine was used as a plate control for all assays with a concentration ranging from 113 ng/mL to 20,000 ng/mL. After a 48 h incubation period, 8 μL of a 1.5 mg/mL solution of MTT diluted in complete MEM media was added to each well. All plates were subsequently incubated in the dark for 1 h at room temperature. After incubation, the media and drugs in each well was removed by shaking the plate over sink, and the plates were left to dry in a fume hood for 15 mins. Next, 30 μL of isopropanol acidified by addition of HCl at a final concentration of 0.36% was added to dissolve the formazan dye crystals created by reduction of MTT. Plates are put on a 3-D rotator for 15–30 mins. Absorbance was determined in all wells using a Tecan iControl 1.6 Infinite plate reader.

[3] = test system: NIH/3T3 cells; assay: Drug toxicity to 3T3 cells (Alamar Blue, 96 h); format: cell-based
Procedure: In a 96-well plate, 5×10^4 NIH/3T3 (ATCC CRL-1658) cells (purchased from ATCC) in DMEM without phenol red supplemented with 2% FBS were added to each well. Cells were incubated for 2 h to allow for attachment. Compounds were added in triplicates at 200 μM and in serial dilutions 1:2 and incubated at 37°C, 5% CO2 for 96 h. […] Following incubation, 10 μL of Alamar Blue (ThermoFisher) were added to each well and cells incubated at 37°C, 5% CO2 for 4 h. Absorbance was read at 590–595 nm.

[4] = Human liver microsome intrinsic clearance; format: in vitro ADME
[5] = Rat hepatocyte intrinsic clearance; format: in vitro ADME
[6] = test system: T. b. brucei (strain 427); assay: T. b. brucei proliferation assay (PrestoBlue, 48 h); format: cell-based, Trypanosoma brucei brucei
Procedure: The assay was performed following a previously reported procedure. Briefly, in a 96-well plate, compounds were added in triplicates at 50 μM and in serial dilutions 1:2 in HMI-9 medium. To each well, 100 μL of 2.5×10^3 T. b. brucei (strain 427, received as a gift from Dr. C. C. Wang at UCSF) in HMI-9 medium was were added and incubated at 37°C, 5% CO2 for 48 h. Following incubation, 20 μL of PrestoBlue were added to each well and incubated for additional 4 h. Fluorescence was read at 530 nm excitation and 590 nm emission.

[7] = test system: T. cruzi amastigote (Tulahuen strain expressing β-galactosidase); assay: Intracellular T. cruzi assay in 3T3 cells (beta-galactosidase, 96 h); format: cell-based, Trypanosoma cruzi; details: intracellular in 3T3 cells, 96 h; read-out: T. cruzi amastigote EC50
Procedure: In a 96-well plate, 5×10^4 3T3 cells in DMEM without phenol red supplemented with 2% FBS were added to each well. Cells were incubated for 2 h to allow for attachment. Compounds were added in triplicates at 50 μM and in serial dilutions 1:2. To each well, 5×10^4 T. cruzi trypomastigotes (Tulahuen strain expressing β-galactosidase) were added and incubated at 37°C, 5% CO2 for 96 h. Following incubation, 50 μL of 500 μM chlorophenol Red-β-D-galactopyranoside (CPRG) in phosphate-buffered saline with 0.5% NP40 was added to each well and incubated at 37°C, 5% CO2 for 4 h. Absorbance was read at 590–595 nm.

[8] = LogD7.4; format: physicochemical; details: pH 7.4
[9] = Aqueous solubility; format: physicochemical
[10] = Human plasma protein binding; format: in vitro ADME

Row | SMILES | EC50 [1] | HepG2 TC50 [2] | 3T3 TC50 [3] | Human Liver Microsome CLint [4] | Rat Hepatocyte CLint [5] | EC50 [6] | EC50 [7] | LogD7.4 [8] | solubility [9] | Human PPB [10]
1 | COc1ccc(Nc2ccnc3cc(Nc4ccnc(N5CCN(C)CC5)n4)ccc23)cc1Cl [NEU-2093] | 4.6 µM | 4.7 µM | 15 µM | 45 µL/min/mg | 2.3 μL/min/10^6 cells | 0.34 µM | 8.1 µM |  |  | 
2 | c1cnc(Nc2ccnc3cc(Nc4nccnn4)ccc23)cn1 [NEU-2145] | 28 µM | 11 µM | > 50 µM | 42 µL/min/mg | > 300 μL/min/10^6 cells | 4.7 µM | > 50 µM | 2.1 | 3 µM (≈ 0.949 µg/mL) | 75%
3 | CN1CCN(S(=O)(=O)c2ccc(-c3ccc4c(Nc5ccc6[nH]nnc6c5)ccnc4c3)cc2)CC1 [NEU-1018] | 17 µM | 28 µM | > 100 µM |  |  | > 50 µM | > 50 µM | 3.4 | < 1 µM | 98%
4 | Cc1nnc(Nc2ccnc3cc(-c4ccc(S(=O)(=O)N5CCN(C)CC5)cc4)ccc23)nc1C [NEU-1028] | 4 µM | 6.4 µM | > 100 µM |  |  | > 50 µM | > 50 µM | 3.4 | 1.5 µM (≈ 0.734 µg/mL) | 93%
5 | Cn1cc(Nc2ccc3c(Nc4cnccn4)ccnc3c2)cn1 [NEU-2143] | 28 µM | 29 µM | > 50 µM | 10 µL/min/mg | 66 μL/min/10^6 cells | 14 µM | > 50 µM | 1.9 |  | 63%
6 | Cc1n[nH]c(C)c1Nc1ccc2c(Nc3cnccn3)ccnc2c1 [NEU-2146] | 27 µM | 40 µM | > 100 µM | 8 µL/min/mg | 120 μL/min/10^6 cells | 17 µM | > 50 µM | 1.8 |  | 68%
7 | Cc1cc(Nc2ccc3c(Nc4cnccn4)ccnc3c2)on1 [NEU-2150] | 31 µM | 48 µM | > 100 µM |  |  | 29 µM | 21 µM |  |  | 
8 | CN1CCN(S(=O)(=O)c2ccc(-c3ccc4c(Nc5cccnc5)ccnc4c3)cc2)CC1 [NEU-1019] | 22 µM | 36 µM | > 100 µM |  |  | 5.4 µM | > 50 µM | 2 | 175 µM (≈ 80.4 µg/mL) | 85%
9 | Cn1cc(-c2ccc3c(Nc4cnccn4)ccnc3c2)cn1 [NEU-2129] | 33 µM | 40 µM | 37 µM | 25 µL/min/mg | 290 μL/min/10^6 cells | 3.3 µM | 2.4 µM | 2.9 | 4 µM (≈ 1.21 µg/mL) | 
10 | Cc1nnc(Nc2ccc3c(Nc4cnccn4)ccnc3c2)nc1C [NEU-2151] | 26 µM | 22 µM | > 100 µM |  |  | 2.3 µM | > 50 µM |  |  | 
11 | Cc1cc(Nc2ccnc3cc(-c4ccc(S(=O)(=O)N5CCN(C)CC5)cc4)ccc23)sn1 [NEU-1023] | 8.4 µM | 35 µM | > 100 µM |  |  | 0.6 µM | 25 µM | 4.2 | < 1 µM | 99%
12 | CN1CCN(S(=O)(=O)c2ccc(-c3ccc4c(Nc5ccnnc5)ccnc4c3)cc2)CC1 [NEU-1020] | 22 µM | 36 µM | > 100 µM |  |  | > 50 µM | > 50 µM | -0.5 | > 1000 µM | 57%
13 | c1coc(-c2ccc3c(Nc4cnccn4)ccnc3c2)c1 [NEU-2131] | 35 µM | 53 µM | > 100 µM | 160 µL/min/mg |  | 4.8 µM | 4.7 µM | 3.8 | 6 µM (≈ 1.73 µg/mL) | 98%
14 | CN1CCN(S(=O)(=O)c2ccc(-c3ccc4c(Nc5ncc(Cl)cn5)ccnc4c3)cc2)CC1 [NEU-1025] | 8.7 µM | 31 µM | 11 µM |  |  | 1.5 µM | 8.8 µM | 4.1 | 4.8 µM (≈ 2.38 µg/mL) | 99%
15 | Cc1cc(Nc2ccc3c(Nc4cnccn4)ccnc3c2)sn1 [NEU-2148] | 4.7 µM | 36 µM | > 100 µM | 28 µL/min/mg | 9 μL/min/10^6 cells | 7.6 µM | > 50 µM | 3.5 | 2 µM (≈ 0.669 µg/mL) | 
16 | COc1ccc(Nc2ccnc3cc(-c4cnn(C)c4)ccc23)cc1Cl [NEU-2130] | 29 µM | 44 µM | > 100 µM |  |  | 2.6 µM | 1.9 µM |  |  | 
17 | CN1CCN(S(=O)(=O)c2ccc(-c3ccc4c(Nc5cnc(C#N)cn5)ccnc4c3)cc2)CC1 [NEU-1024] | 19 µM | 31 µM | > 100 µM |  |  | 3 µM | > 50 µM | 3.7 | < 1 µM | 97%
